Test results taken from patent publication US10463671B2, “Combination therapy for treating cancer” (Epizyme, Inc., priority 2013, dated 2019).

How the values were obtained:
[1] = tested on: glucocorticoid signaling genes in SU-DHL4 cells; assay: RT2 Glucocorticoid Signaling PCR array; format: cell-based; conditions: SUDHL4 cell line; 4 days; normalized to B2M
[2] = tested on: DOHH2 cells; assay: Medium throughput combination proliferation assay (CellTiter-Glo, Chou-Talalay CI / potency shift); conditions: DOHH2 EZH2 wild-type cells

CCN(c1cc(-c2ccc(CN3CCOCC3)cc2)cc(C(=O)NCc2c(C)cc(C)[nH]c2=O)c1C)C1CCOCC1 [Compound 44]
ACTB ΔCT (B2M) [1]: −4.472
ADARB1 ΔCT (B2M) [1]: 8.878
AFF1 ΔCT (B2M) [1]: 7.118
AK2 ΔCT (B2M) [1]: 1.846
AMPD3 ΔCT (B2M) [1]: 6.024
ANGPTL4 ΔCT (B2M) [1]: 10.570
ANXA4 ΔCT (B2M) [1]: 8.217
AQP1 ΔCT (B2M) [1]: 14.226
ARID5B ΔCT (B2M) [1]: 5.748
ASPH ΔCT (B2M) [1]: 3.985
ATF4 ΔCT (B2M) [1]: 0.232
B2M ΔCT (B2M) [1]: 0.000
BCL6 ΔCT (B2M) [1]: 1.878
CEBPA ΔCT (B2M) [1]: 10.026
CEBPB ΔCT (B2M) [1]: 5.188
CREB1 ΔCT (B2M) [1]: 4.237
CREB3L4 ΔCT (B2M) [1]: 5.662
CREB3 ΔCT (B2M) [1]: 5.665
CYB561 ΔCT (B2M) [1]: 14.250
DDIT4 ΔCT (B2M) [1]: 3.098
DIRAS2 ΔCT (B2M) [1]: 14.626
DUSP1 ΔCT (B2M) [1]: 7.998
EDN1 ΔCT (B2M) [1]: 13.616
FKBP5 ΔCT (B2M) [1]: 3.113
FOSL2 ΔCT (B2M) [1]: 14.606
GAPDH ΔCT (B2M) [1]: −2.966
GDPD1 ΔCT (B2M) [1]: 8.216
GLUL ΔCT (B2M) [1]: 15.658
GOT1 ΔCT (B2M) [1]: 4.103
H6PD ΔCT (B2M) [1]: 6.063
HAS2 ΔCT (B2M) [1]: 13.205
HNRPLL ΔCT (B2M) [1]: 3.821
HPRT1 ΔCT (B2M) [1]: 2.826
IL1RN ΔCT (B2M) [1]: 17.503
IL6R ΔCT (B2M) [1]: 13.239
IL10 ΔCT (B2M) [1]: 12.363
KLF9 ΔCT (B2M) [1]: 8.013
KLF13 ΔCT (B2M) [1]: 4.078
MERTK ΔCT (B2M) [1]: 15.103
MT2A ΔCT (B2M) [1]: 4.766
NFKBIA ΔCT (B2M) [1]: 4.260
NR3C1 ΔCT (B2M) [1]: 4.025
PDCD7 ΔCT (B2M) [1]: 5.357
PDGFRB ΔCT (B2M) [1]: 16.449
PDP1 ΔCT (B2M) [1]: 6.751
PER1 ΔCT (B2M) [1]: 6.217
PER2 ΔCT (B2M) [1]: 5.647
PIK3R1 ΔCT (B2M) [1]: 4.859
PLEKHF1 ΔCT (B2M) [1]: 8.928
POU2F1 ΔCT (B2M) [1]: 5.110
POU2F2 ΔCT (B2M) [1]: 3.085
RASA3 ΔCT (B2M) [1]: 4.228
RGS2 ΔCT (B2M) [1]: 5.914
RHOB ΔCT (B2M) [1]: 11.328
RHOJ ΔCT (B2M) [1]: 19.737
RPLP0 ΔCT (B2M) [1]: −3.490
SESN1 ΔCT (B2M) [1]: 6.439
SGK1 ΔCT (B2M) [1]: 7.757
SLC10A6 ΔCT (B2M) [1]: 15.580
SLC19A2 ΔCT (B2M) [1]: 7.877
SLC22A5 ΔCT (B2M) [1]: 8.969
SNTA1 ΔCT (B2M) [1]: 5.666
SPHK1 ΔCT (B2M) [1]: 10.251
SPSB1 ΔCT (B2M) [1]: 6.832
STAT5A ΔCT (B2M) [1]: 6.005
STAT5B ΔCT (B2M) [1]: 3.152
TBL1XR1 ΔCT (B2M) [1]: 2.099
TNF ΔCT (B2M) [1]: 10.753
TNFAIP3 ΔCT (B2M) [1]: 9.051
TSC22D3 ΔCT (B2M) [1]: 4.628
USP2 ΔCT (B2M) [1]: 3.364
USP54 ΔCT (B2M) [1]: 15.234
VDR ΔCT (B2M) [1]: 8.200
VLDLR ΔCT (B2M) [1]: 9.068
ZFP36 ΔCT (B2M) [1]: 6.014
ZHX3 ΔCT (B2M) [1]: 5.569
ZNF281 ΔCT (B2M) [1]: 5.057
anti-proliferative effect as a single agent [2]: no anti-proliferative effect
